# Source: patent US8349805B2, “Use of Gonadorelin as a therapeutic agent” (priority 2007, dated 2013)
# Ends that are not written are not given here.
# What was measured:
# [1] = test system: A549 cells; assay: Apoptosis prevention assay (C2 ceramide, Annexin-5); type: cell-based, human; settings: 10 micrograms per ml, 30 min pretreatment, combination 0.95:1.05 mole
# [2] = test system: murine spleen cells; assay: Th1/Th2 cytokine profiling assay; type: cell-based, Balb/c mice; settings: 10 micrograms per ml; Ovalbumin-restimulated murine spleen cells, 72 hours
# Excerpt: The Balb/c mice (originated in 1923, it is a popular strain and is used in many different research disciplines. Also classified as an inbred from the production of 20 or more successive brother-sister matings, the Balb/c mouse is albino and small in size) were immunized on Days 1, 15, and 29 with Ovalbumin (Ovalbumin is the main protein found in egg white, commonly used to stimulate an immunological reaction in test animals) in PBS (5 micrograms/injection). On day 50, spleens of the mice were harvested (3 weeks after last boost with Ovalbumin). Cells were cultured (2×10^5/well in triplicate) and incubated with culture medium or test peptides—10 micrograms per ml—for 30 min. Thereafter, additional Ovalbumin was added to the cells at 10 micrograms/ml for in vitro restimulation of the cells. 72 hours later, cell supernatants were harvested and assayed using the Becton Dickinson Mouse Th1/Th2 Cytokine CBA Kit.
# [3] = test system: hepatitis B virus (HBV) ayw strain; assay: HBV replication assay in HepG2-2.2.15 cells (TaqMan PCR of secreted HBV DNA); type: cell-based; settings: 10 micrograms per ml; HepG2-2.2.15, 6 days; combination 0.95 mole peptide 1 and 1.05 mole peptide 2
# [4] = test system: HCMV strain AD169; assay: HCMV plaque formation assay in MRC-5 cells; settings: 10 micrograms per ml, 7-10 days
# [5] = test system: Primary Human endothelial cells (HUVEC); assay: Endothelial cell migration assay; type: cell-based; settings: 10 micrograms per ml, 22 hours
# Experimental: Thereafter, designated concentration of testing peptides—10 micrograms per ml—was added in duplicate wells.
# [6] = test system: HUVEC; assay: Endothelial tube formation assay; type: cell-based, human; settings: 10 micrograms per ml, 20 hours, combination 1.10 mole:0.90 mole
# Excerpt: Positive control was vehicle only.
Compound,reduction of the ceramide-induced apoptosis on human lung cells [1],change of the production of TNF-alpha [2],production of IFN-γ (decreased by %) [2],production of IL-2 (induced by %) [2],production of IL-4 (decreased by %) [2],production of IL-5 (decreased by %) [2] [%],inhibition of HBV replication as compared to the virus control infection [3],inhibition of HCMV plaque formation as compared to the virus control [4],inhibition of the migration of human endothelial cells ([5]; combination 1.10 mole:0.90 mole) [%],inhibition of the tube formation of human endothelial cells [6] [%],increase of the migration of endothelial cells [5] [%]
CC(C)C[C@H](NC(=O)CNC(=O)[C@H](Cc1ccc(O)cc1)NC(=O)[C@H](CO)NC(=O)[C@H](Cc1c[nH]c2ccccc12)NC(=O)[C@H](Cc1cnc[nH]1)NC(=O)[C@@H]1CCC(=O)N1)C(=O)N[C@@H](CCCNC(=N)N)C(=O)N1CCC[C@H]1C(=O)NCC(N)=O [Peptide 1],27.05%,did not significantly change,did not significantly change,43.6%,65.9%,44.1,30.4%,did not inhibit,39,6,–
Met-Gln-Met-Lys-Lys-Val-Leu-Asp-Ser-OH (MQMKKVLDS-OH) [Peptide 2],did not reduce,did not significantly change,27.5%,did not significantly change,did not significantly change,38.8,no effect,did not inhibit,–,4,16
